According to patent publication US20230414565A1, “COMPOSITIONS AND METHODS FOR TREATING HEMATOLOGICAL MALIGNANCIES” (Magenta Therapeutics, Inc., priority 2022, published 2023):
Like-named read-outs stand apart in the source and are kept apart here. Blank lines part the entries; values can stand above or below the molecule they belong to.

Columns and labels:
[1] = system: hematopoietic stem and progenitor cell mobilization; conditions: U.S. Pat. Nos. 6,080,398 and 6,447,766; cited from earlier work
[2] = system: graft cell subsets (T cells, B cells, NK cells, TNC); conditions: cited from earlier work
CD34+ cells [3] = test: Phase 1 clinical trial: mobilization of CD34+ cells into peripheral blood, multicolor flow cytometry
CD34+CD90+CD45RA− cells [4] = test: Phase 1 clinical trial: mobilization of CD34+CD90+CD45RA− cells into peripheral blood, multicolor flow cytometry
Experimental: (§1) The dose of MGTA-145 was one of 0.0075 mg/kg, 0.015 mg/kg, 0.03 mg/kg, 0.075 mg/kg, 0.15 mg/kg, or 0.3 mg/kg. […] The dose of MGTA-145 was one of 0.015 mg/kg, 0.03 mg/kg, 0.075 mg/kg, or 0.15 mg/kg. […] The dose of MGTA-145 was one of 0.03 mg/kg or 0.075 mg/kg.
(§2) Mobilization of white blood cells (WBCs), neutrophils, lymphocytes, basophils, and eosinophils was quantified by automated hematology analyzer.

CD34+ cells [5] = conditions: historical plerixafor alone data, Devine et al., Blood 2008; cited from earlier work
MMP-9 = test: Phase 1 clinical trial: plasma MMP-9 and TIMP-1, sandwich immunoassay; assay type: in vivo, human; conditions: MGTA-145 monotherapy, all six doses
Experimental: (§3) Additionally, blood samples were analyzed by multicolor flow cytometry to quantify changes in expression of neutrophil activation markers such as L-selectin, CD11b, CD18, and CD66. Additionally, matrix metalloproteinase 9 (MMP-9), a neutrophil protease believed to mediate mobilization in response to MGTA-145, as well as its cognate inhibitor, TIMP-1, were quantified in plasma samples collected at the same time points by sandwich immunoassay.

CXCR2 = biological target: T1, CXCR2 (Homo sapiens, UniProt P25025); test: Phase 1 clinical trial: CXCR2 expression on peripheral blood neutrophils; assay type: in vivo
T1 construct: endogenous in cells; host or cells: peripheral blood neutrophils of trial subjects
T1 sequence (P25025 1-360): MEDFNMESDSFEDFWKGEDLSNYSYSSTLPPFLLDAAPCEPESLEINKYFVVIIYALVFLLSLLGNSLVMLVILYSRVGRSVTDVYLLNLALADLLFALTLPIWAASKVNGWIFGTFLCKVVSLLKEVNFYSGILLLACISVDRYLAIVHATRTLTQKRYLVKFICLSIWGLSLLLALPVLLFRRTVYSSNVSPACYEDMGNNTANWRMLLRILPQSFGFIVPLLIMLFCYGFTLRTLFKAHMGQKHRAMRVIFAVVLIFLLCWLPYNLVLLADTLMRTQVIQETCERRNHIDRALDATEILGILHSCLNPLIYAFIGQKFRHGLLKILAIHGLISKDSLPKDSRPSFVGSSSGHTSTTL

neutrophils = test: Phase 1 clinical trial: mobilization of neutrophils, automated hematology analyzer; conditions: MGTA-145 monotherapy
Experimental: as §1, §2

[6] = Phase 1 clinical trial: treatment emergent adverse events; conditions: Part A; MGTA-145 0.0075-0.3 mg/kg, n = 24
white blood cells (WBCs) = test: Phase 1 clinical trial: mobilization of white blood cells, automated hematology analyzer; conditions: MGTA-145 monotherapy
Experimental: as §1, §2

CD34+ cells [7] = test: Phase 1 Part D: apheresis collection yield of CD34+ cells
Experimental: as §1
(§4) The table documents the body weight of each subject, the total CD34+ cells that were obtained through the apheresis procedure, the normalized CD34+ cells/kg of body weight, and the percentage of CD34+ cells that were CD90+CD45RA−.

CD45.2 mice = test: Primary and secondary transplantation of mobilized mouse cells at limit dilution (CRU); assay type: in vivo; conditions: FIG. 25, right panel; versus the other cohorts
Text: Mice (CD45.1) were mobilized according to the scheme shown in FIG. 24 and mobilized cells transplanted into CD45.2 mice at limit dilution.

CD34+CD90+CD45RA− cells [8] = test: Phase 1 Part D: apheresis collection of CD34+CD90+CD45RA− cells; conditions: for CD90+/kg (CD34+CD90+CD45RA− cells), mean / CD90+/kg (CD34+CD90+CD45RA− cells), median: 2 h stagger after plerixafor; for CD90+ (% of CD34+): 2 h stagger after plerixafor (Table 13)
Experimental: as §1, §4

[9] = system: neutrophil activation markers (L-selectin, CD11b, CD18, CD66); test: Phase 1 clinical trial: neutrophil activation markers, multicolor flow cytometry; assay type: in vivo, human; conditions: MGTA-145 monotherapy
Experimental: as §3

[10] = G-CSF; Pulsiper et al. (2009) Blood; cited from earlier work
[11] = system: neutrophil activation markers (L-selectin, CD11b, CD18, CD66); conditions: 5 days of G-CSF; Falanga et al., Blood 1999; cited from earlier work
[12] = Chen et al., 2019, 2 LP for plerixafor (N = 50+), 1 LP for G-CSF (N = 112+)
[13] = Devine et al, 2008, yield of 1 LP, plerixafor N = 24, G-CSF N = 8
[14] = Part B, pooled placebo + plerixafor on Day 1
[15] = Part C, pooled placebo + plerixafor on Day 1
[16] = Pooled B + C, pooled placebo + plerixafor on Day 1
[17] = plerixafor alone, MGTA-145 dose 0
[18] = higher doses (0.075, 0.15, 0.3 mg/kg), 2 hours post administration
[19] = lower doses (0.0075, 0.015, 0.03 mg/kg), between 1 and 2 hours post administration
[20] = MGTA-145 monotherapy 0.03 mg/kg
[21] = MGTA-145 monotherapy, the other doses
[22] = Part A, MGTA-145 on Day 1, 0.03 mg/kg
[23] = Part A, MGTA-145 on Day 1, 0.3 mg/kg
[24] = 0.03 mg/kg MGTA-145 and plerixafor (staggered 2 hour)
[25] = G-CSF, N = 78 healthy donors, Chaidos et al, Blood 2012

Molecule: Gro-β T N65D: Gro-β T variant with aspartic acid in place of asparagine at position 65
- Potency of hematopoietic stem and progenitor cell mobilization [1]: potency that is substantially greater than that of Gro-β T

Molecule: c1cc(CN2CCCNCCNCCCNCC2)ccc1CN1CCCNCCNCCCNCC1 [plerixafor, 1,1′-[1,4-phenylenebis(methylene)]-bis-1,4,8,11-tetra-azacyclotetradecane]
- Graft CD3+, median [2, 12]: 6e+08 kg⁻¹
- Graft CD4+, median [2, 12]: 3.6e+08 kg⁻¹
- Graft CD8+, median [2, 12]: 2.2e+08 kg⁻¹
- Graft CD19+, median [2, 12]: 1.5e+08 kg⁻¹
- Graft CD34+, median [2, 12]: 4.7e+06 kg⁻¹
- Graft CD56+, median [2, 12]: 4e+07 kg⁻¹
- Graft CD3+, median [2, 13]: 4.6e+08 kg⁻¹
- Graft CD4+, median [2, 13]: 3.2e+08 kg⁻¹
- Graft CD8+, median [2, 13]: 1.3e+08 kg⁻¹
- Graft CD34+, median [2, 13]: 2.9e+06 kg⁻¹
- Graft CD56+, median [2, 13]: 3e+07 kg⁻¹
- Graft CD19+, median ([2]; Devine et al, 2008, yield of 1 LP, plerixafor N = 24): 1e+08 kg⁻¹
- Peak CD34+ (#/μL) Median (CD34+ cells [3]; Part B, plerixafor alone, MGTA-145 dose 0): 26 #/μL
- Peak CD34+ (#/μL) Median (CD34+ cells [3]; [14]): 26 #/μL
- Percent ≥20/μL peak CD34+ (CD34+ cells [3]; [14]): 64%
- Peak CD34+ (#/μL) Median (CD34+ cells [3]; Part C first day, plerixafor alone, MGTA-145 dose 0): 18 #/μL
- Peak CD34+ (#/μL) Median (CD34+ cells [3]; [15]): 18 #/μL
- Percent ≥20/μL peak CD34+ (CD34+ cells [3]; [15]): 0%
- Percent ≥20/μL peak CD34+ (CD34+ cells [3]; Part C, pooled placebo + plerixafor on Day 2): 50%
- Peak CD34+ (#/μL) Median (CD34+ cells [3]; Pooled B + C, plerixafor alone, MGTA-145 dose 0): 20 #/μL
- Peak CD34+ (#/μL) Median (CD34+ cells [3]; [16]): 23 #/μL
- Percent ≥20/μL peak CD34+ (CD34+ cells [3]; [16]): 56%
- Tmax (time of the peak CD34+ level) Median (CD34+ cells [3]; plerixafor alone): 8 h
- Peak CD34+/μL (FC vs. baseline) Median (CD34+ cells [3]; [17]): 15
- Peak CD34+/μL Median (CD34+ cells [3]; [17]): 20 µL⁻¹
- Peak CD34+CD90+CD45RA− mobilization (median) (CD34+CD90+CD45RA− cells [4]; plerixafor alone): 8 cells/μL
- Patients with peak CD34+ ≥20 cells/μL (CD34+ cells [5]): 28%
- Patients with peak CD34+ ≥40 cells/μL (CD34+ cells [5]): 4%

- CXCR2 expression recovery prior to the second dose (CXCR2; MGTA-145 0.07 mg/kg, staggered dosing, two consecutive days): ~80 % of baseline
Molecule: MGTA-145: CXCR2 agonist; truncated Gro-β with deletion of the first four N-terminal amino acids (SEQ ID NO: 2)
- Molar ratio MMP-9:TIMP-1 (MMP-9): rapid increase 30 minutes post-administration
- Plasma levels of MMP-9 (MMP-9): increased sharply within 30 minutes post-administration
- CXCR2 on peripheral neutrophils (CXCR2; MGTA-145 monotherapy): rapid downregulation of its target receptor, CXCR2, on peripheral neutrophils, followed by recovery over 24 hours
- Initial plateau of neutrophil mobilization (neutrophils; [18]): 5-8 ×10^3 cells/μL
- Peak mobilization of neutrophils (neutrophils; [19]): 13-15 ×10^3 cells/μL
- Fold increase of CD34+ cells (CD34+ cells [3]; [20]): 7 fold
- Peak concentration of CD34+ cells (CD34+ cells [3]; [20]): ~10 cells/μL
- Time of peak CD34+ mobilization post administration (CD34+ cells [3]; MGTA-145 monotherapy, single dose, across the six doses 0.0075-0.3 mg/kg): about 30 minutes
- Fold increase of CD34+ cells (CD34+ cells [3]; [21]): 2-3 fold
- Peak concentration of CD34+ cells (CD34+ cells [3]; MGTA-145 monotherapy, the other doses (0.0075, 0.015, 0.075, 0.15, 0.3 mg/kg)): ~5 cells/μL
- Peak CD34+ (#/μL) Median (CD34+ cells [3]; [22]): 12 #/μL
- Percent ≥20/μL peak CD34+ (CD34+ cells [3]; [22]): 0%
- Peak CD34+ (#/μL) Median (CD34+ cells [3]; [23]): 3 #/μL
- Percent ≥20/μL peak CD34+ (CD34+ cells [3]; [23]): 0%
- Fold increase of CD34+CD90+CD45RA− cells (CD34+CD90+CD45RA− cells [4]; [20]): ~8.3 fold
- Peak concentration of CD34+CD90+CD45RA− cells (CD34+CD90+CD45RA− cells [4]; [20]): ~3 cells/μL
- Time of peak CD34+CD90+CD45RA− mobilization post administration (CD34+CD90+CD45RA− cells [4]; MGTA-145 monotherapy, six doses): 30 min
- Fold increase of CD34+CD90+CD45RA− cells (CD34+CD90+CD45RA− cells [4]; [21]): 2-3.5 fold
- Peak concentration of CD34+CD90+CD45RA− cells (CD34+CD90+CD45RA− cells [4]; [21]): 1-1.6 cells/μL
- Back pain/Musculoskeletal pain [6]: 19 n (%)
- Subjects with any drug related TEAE [6]: 19 n (%)
- Initial plateau of WBC mobilization (white blood cells (WBCs); [18]): 6-10 ×10^3 cells/μL
- Peak mobilization of WBCs (white blood cells (WBCs); [19]): 15-17 ×10^3 cells/μL
- CD34+/kg, median (CD34+ cells [7]; [24]): 4.3 ×10^6 cells
- Total CD34+ Yield, median (CD34+ cells [7]; [24]): 321 (239-500) ×10^6 cells
- CD34+/kg, mean (CD34+ cells [7]; MGTA-145 0.03 mg/kg, 2 h stagger after plerixafor): 4.1 ×10^6
- Engraftment rates, secondary transplantation (CD45.2 mice): vastly improved engraftment rates
- CD90+/kg (CD34+CD90+CD45RA− cells), mean (CD34+CD90+CD45RA− cells [8]; MGTA-145 0.03 mg/kg): 1.3 ×10^6
- CD90+/kg (CD34+CD90+CD45RA− cells), median (CD34+CD90+CD45RA− cells [8]; MGTA-145 0.03 mg/kg): 1.5 ×10^6
- CD90+ (% of CD34+) (CD34+CD90+CD45RA− cells [8]; MGTA-145 0.03 mg/kg, 0.03 mg/kg): 31%
- CD90+/kg (CD34+CD90+CD45RA− cells), mean (CD34+CD90+CD45RA− cells [8]; MGTA-145 […]): 1.4 ×10^6
- CD90+/kg (CD34+CD90+CD45RA− cells), median (CD34+CD90+CD45RA− cells [8]; MGTA-145 […]): 1.2 ×10^6
- CD90+ (% of CD34+) (CD34+CD90+CD45RA− cells [8]; MGTA-145 […], […]): 37%
- Potency of hematopoietic stem and progenitor cell mobilization [1]: potency superior to that of Gro-β by multiple orders of magnitude
- Change relative to baseline of neutrophil activation marker CD66 ([9]; all doses except the highest (0.3 mg/kg)): < 2 fold
- Change relative to baseline of neutrophil activation marker L-selectin ([9]; all six doses): < 2 fold
- Change relative to baseline of neutrophil activation markers CD11b and CD18 ([9]; all six doses): < 2 fold

B1: G-CSF: standard mobilization agent, five days of Filgrastim (G-CSF) (protein, UniProt P09919 31-207, looked up)
Granulocyte …: TPLGPASSLPQSFLLKCLEQVRKIQGDGAALQEKLVSECATYKLCHPEELVLLGHSLGIPWAPLSSCPSQALQLAGCLSQLHSGLFLYQGLLQALEGISPELGPTLDTLQLDVADFATTIWQQMEELGMAPALQPTQGAMPAFASAFQRRAGGVLVASHLQSFLEVSYRVLRHLAQP
modifications: filgrastim
- Graft CD3+, median [2, 12]: 2.5e+08 kg⁻¹
- Graft CD4+, median [2, 12]: 1.5e+08 kg⁻¹
- Graft CD8+, median [2, 12]: 7e+07 kg⁻¹
- Graft CD19+, median [2, 12]: 5e+07 kg⁻¹
- Graft CD34+, median [2, 12]: 4.2e+06 kg⁻¹
- Graft CD56+, median [2, 12]: 1e+07 kg⁻¹
- Graft CD3+, median [2, 13]: 1.3e+08 kg⁻¹
- Graft CD4+, median [2, 13]: 1.1e+08 kg⁻¹
- Graft CD8+, median [2, 13]: 4e+07 kg⁻¹
- Graft CD34+, median [2, 13]: 4.2e+06 kg⁻¹
- Graft CD56+, median [2, 13]: 2e+07 kg⁻¹
- TNC/kg donor weight, median (range) ([2]; G-CSF, N = 40 healthy donors, Singhal et al, BMT 2000): 7.2 (3.2-14.0) ×10^8 cells
- Frequency of CD3+ T cells in graft, median [2, 25]: 45.3 % of CD45+
- Frequency of CD4+ T cells in graft, median [2, 25]: 29.8 % of CD45+
- Frequency of CD8+ T cells in graft, median [2, 25]: 11.8 % of CD45+
- Frequency of CD19+ B cells in graft, median [2, 25]: 10.5 % of CD45+
- Frequency of CD56+ NK cells in graft, median [2, 25]: 3.2 % of CD45+
- Frequency of Tregs in graft, median [2, 25]: 3.5 % of CD4+ T cells
- Frequency of iNKT cells in graft, median [2, 25]: 0.04 % of CD3+
- Tolerability [10]: Majority with bone pain,
- Increase in neutrophil activation markers [11]: ~2.7 fold
